Assay [1] concerns the target ALK tyrosine kinase receptor (Homo sapiens, UniProt Q9UM73).
Assay [2] concerns the target ALK tyrosine kinase receptor (Homo sapiens, UniProt Q9UM73, L1196M).
The subject of assay [3] is BaF3. Nature of the assay: cells. The following applies: Mus musculus.
Description: Cytotoxicity against mouse BAF3 cells assessed as growth inhibition after 72 hrs by [3H]-thymidine incorporation assay

Structures are written as SMILES.

For the compound `Clc1cncc2nc3ccccc3n12`, the IC50 in assay [1] is more than 100 µM. As for `COc1ccc(-c2cncc3nc4ccc(/C=C/c5ccccc5)cc4n23)cc1`, the IC50 in assay [1] was 3.5 µM; in assay [2], 4.5 µM. `COc1ccc(-c2cncc3nc4ccc(-c5ccc(NC(C)=O)cc5)cc4n23)cc1`: in assay [1], the IC50 was determined as 18 µM. For the compound `COc1ccc(-c2cc3nc4ccc(Br)cc4n3cn2)cc1`, the IC50 is 10 µM in assay [1] and more than 25 µM in assay [3]. As to `COc1ccc(-c2cncc3nc4ccc(-c5ccc(N6CCN(C)CC6)cc5)cc4n23)cc1`, in assay [1], half-maximal inhibition (IC50) required 14 µM.

As to `COc1ccc(-c2ccc3nc4cncc(/C=C/c5ccccc5)n4c3c2)cc1`, the figures for the concentration for half-maximal inhibition (IC50) in assay [1], in assay [2] and in assay [3] were 0.65 µM, 1.5 µM and more than 12.5 µM, respectively. For `CN1CCN(c2ccc(-c3ccc4nc5cncc(-c6ccc(N7CCN(C)CC7)cc6)n5c4c3)cc2)CC1`, the values for the IC50 in assay [1], in assay [2] and in assay [3] were more than 100 µM, 29 µM and 0.87 µM, respectively. Take `Clc1cncc2nc3ccc(Br)cc3n12`: the IC50 was more than 50 µM in assay [1] and 2.4 µM in assay [3]. On to `O=[N+]([O-])c1cccc(Nc2cc3nc4ccccc4n3cn2)c1`, for which the values for the IC50 in assay [1] and in assay [2] were 10 µM and 14 µM, respectively.

Take `c1ccc(Nc2cc3nc4ccccc4n3cn2)cc1`: the IC50 in assay [1] came out at 52 µM; in assay [2], 10 µM. The compound `Clc1cc2nc3ccccc3n2cn1` came in with an IC50 in assay [1] of more than 100 µM. For the compound `Brc1ccc2nc3cc(Nc4ccccc4)ncn3c2c1`, the IC50 in assay [1] worked out at 69 µM; in assay [2] it was 49 µM; in assay [3] it was 5.2 µM. `COc1cccc(Nc2cc3nc4ccccc4n3cn2)c1` had an IC50 in assay [1] of 51 µM. In the case of `Clc1cc2nc3ccc(Br)cc3n2cn1`, in assay [1], the IC50 was more than 50 µM.

Source of the values: ChEMBL document CHEMBL3112523, “Synthesis and biological evaluation of benzo[4,5]imidazo[1,2-c]pyrimidine and benzo[4,5]imidazo[1,2-a]pyrazine derivatives as anaplastic lymphoma kinase inhibitors” (Bioorg Med Chem, 2014).
